Experimental data from patent US20240417435A1, “DEFENSIN-DERIVED PEPTIDE WITH ANTIBACTERIAL ACTIVITY ALSO AGAINST MULTI-ANTIBIOTIC-RESISTANT BACTERIA” (priority 2021, published 2024).

Tests used:
[1] = tested on: P. aeruginosa ATCC 27853 biofilm; experiment: Biofilm formation and maturation, crystal violet; format: cell-based, Pseudomonas aeruginosa; conditions: concentrations slightly higher than MIC, dose-dependent, maximum activity at 125 μM
Experimental: (§1) The biofilm formation test for S. aureus ATCC 6538 and P. aeruginosa ATCC 27853 was conducted in 96-well plates, as previously reported (Merritt J H, Kadouri D E, O'Toole G A. Growing and analyzing static biofilms. Curr Protoc Microbiol. 2005; Chapter 1: Unit 1B.1.)
(§2) Briefly, the bacteria from overnight cultures were diluted and grown to 0.5 McFarland. The bacteria were diluted 1:100 and plated in each well containing 100 μL of BHI broth. To evaluate the impact of peptide γ2 on biofilm formation, the medium was supplemented with various concentrations of peptide (2.5, 12.5, 25 and 125 μM) and incubated overnight. To evaluate biofilm maturation, the bacteria of the cultures grown overnight were diluted 1:1000, and 5 μL of said bacterial suspensions was added to each well, containing 100 μL of BHI broth, and left to grow overnight. The medium was then removed and replaced with fresh medium containing various peptide concentrations (2.5, 12.5 and 125 μM). At the end of incubation, the medium was removed; the biofilms were washed twice with PBS and stained with crystal violet (1%) for 30 minutes, then resuspended in 200 μL of ethanol. The negative controls were bacteria incubated with medium only. The positive controls were bacteria incubated with medium supplemented with 0.42 μM gentamicin.

A549 cells [2] = tested on: A549 cells
Experimental: (§6) Parental HT-1080, HUVEC, SH-SY5Y human fibroblasts (HF) and A549 cells from Culture Cell Lines Facility CEINGE Biotecnologie Avanzate s.c.ar.l., Naples, Italy, and HeLa cells (ATCC CCL-2) stored in liquid nitrogen, were thawed by stirring the vials gently for 2 minutes in a water bath at 37° C. […]
(§7) The cells were incubated for 24 hours at 37° C. in 5% CO2 to allow them to grow and form a single layer in the flask. Cells grown to 80-95% confluency were washed with PBS, treated with 3 mL of trypsin-EDTA 1× solution, diluted, counted and seeded (4×10^3 cells/200 μl per well) in 96-well tissue-culture plates for 24 h in triplicate. The reduction in cell proliferation was evaluated with the 3-[4,5-dimethylthiazol-2-yl]-2,5-diphenyltetrazolium bromide (MTT) assay, which measures metabolic changes. […] After incubation, the presence of violet crystals, which normally indicate metabolisation of MTT, was evaluated. […] The specific stain eluted was measured with a spectrophotometer (550 nm). […] The cell inhibition percentage was determined with the following formula:
(§8) % cell inhibition=100−(Absorbance of treated cells/Absorbance of control cells)×100. […]
(§9) The mean percentage cell inhibition values for each cell line at different peptide γ2 concentrations compared with the untreated cells were analysed with One-way ANOVA.

[3] = tested on: P. aeruginosa ATCC 27853 biofilm; experiment: Biofilm formation by LIVE/DEAD imaging; format: cell-based, Pseudomonas aeruginosa; conditions: 24 h static culture
Experimental: (§3) The formation of S. aureus ATCC 6538 and P. aeruginosa ATCC 27853 biofilms was also evaluated by imaging. The medium was then supplemented with various peptide concentrations (2.5, 12.5 and 25 μM) and incubated overnight, and the biofilms were stained with a FilmTracer LIVE/DEAD biofilm viability kit (Invitrogen) according to the manufacturer's instructions. The images were acquired with Cell Discoverer 7, Zeiss.

[4] = tested on: peripheral blood mononuclear cells (PBMC); experiment: Cytokine secretion measurement (ProcartaPlex/Luminex); format: cell-based, human; conditions: PBMCs from healthy donors; 1.25 and 12.5 μM; 18 hours
From the text: Supernatants for cytokine evaluation were harvested from peripheral blood mononuclear cell cultures (PBMCs) and analysed with the Invitrogen ProcartaPlex bead-based immunoassay (Invitrogen, Thermo Fisher Scientific) using the Luminex instrument platform (Luminex 200, Luminex Corporation), according to the manufacturer's instructions. xPONENT 3.1 software (Luminex) was used for acquisition and analysis of the samples.

S. aureus ATCC 6538 = experiment: SYTOX Green absorption assay (membrane permeabilisation); format: cell-based, Staphylococcus aureus
Experimental: (§4) The effect of peptide γ2 on the membrane integrity of S. aureus ATCC 6538 and P. aeruginosa ATCC 27853 was evaluated by measuring the extent of intracellular accumulation of SYTOX green (Juba M L, et al. Biochim Biophys Acta. 2015; 1848 (5): 1081-91). The cells were harvested halfway through the log phase, washed, and resuspended in 10 mM of phosphate buffer. The final density was adjusted to 5×10^7 CFU/mL. The cells were then treated with peptide γ2 (0.625, 1.25, 2.5, 12.5, 25 μM) in the presence of 200 nM SYTOX green (Invitrogen). The fluorescence increase of SYTOX green, a direct measurement of the degree of membrane permeabilisation, was monitored with a fluorescence spectrophotometer. The excitation and emission wavelengths used were 503 nm and 523 nm respectively. 5

HUVEC endothelial cells = experiment: Cell migration assay in Boyden chambers; format: cell-based
Experimental: (§5) Cell migration assays were conducted as previously described (Bifulco K et al., Mol Cancer There 2013; 2:1981-93), using Boyden chambers and polyvinylpyrrolidone-free polycarbonate filters with 8 μm pores inserted between a lower and upper compartment. Briefly, the cell suspension (1×10^5 viable cells/mL of serum-free medium) was seeded in each upper chamber. The lower chambers were filled with DMEM only, DMEM containing 10 nM N-formyl-methionyl-leucylphenylalanine peptide (fMLF), as positive control, or increasing peptide γ2 concentration. Incubation was conducted for 4 h at 37° C. in air humidified with 5% CO2. At the end of the assay, the cells on the lower surface of the filter were fixed with ethanol and stained with haematoxylin, and 10 random fields/filter were counted with a 200× magnification. The extent of cell migration was expressed as a percentage of baseline cell migration evaluated in the absence of chemo-attractants, taken as 100% (CTRL).

HT-1080 cells [5] = experiment: Cell migration assay in Boyden chambers; format: cell-based
Experimental: as §5

A549 cells [6] = experiment: Cell migration assay in Boyden chambers; format: cell-based
Experimental: as §5

P. aeruginosa ATCC 27853 = experiment: SYTOX Green absorption assay (membrane permeabilisation); format: cell-based, Pseudomonas aeruginosa
Experimental: as §4

[7] = tested on: S. aureus ATCC 6538 biofilm; experiment: Biofilm formation and maturation, crystal violet; format: cell-based, Staphylococcus aureus; conditions: concentrations slightly higher than MIC, dose-dependent, maximum activity at 125 μM
Experimental: as §1, §2

[8] = tested on: S. aureus ATCC 6538 biofilm; experiment: Biofilm formation by LIVE/DEAD imaging; format: cell-based, Staphylococcus aureus; conditions: 24 h static culture
Experimental: as §3

HT-1080 cells [9] = tested on: HT-1080 cells
Experimental: as §6, §7, §8, §9

Experimental for HUVEC cells: as §6, §7, §8, §9
Experimental for HeLa cells: as §6, §7, §8, §9
Experimental for human fibroblasts (HF): as §6, §7, §8, §9

Q: Which results are given for “Ac-CLPKRRQIGKSSTRGRKSCKK-NH2 (not fully specified (bridges); printed as Ac-CLPKRRQIGKSSTRGRKSCKK-NH2; also: oxidised (disulfide) or reduced form, both stated) [peptide γ2]”?
A: biofilm formation [1]: significantly inhibited; biofilm maturation [1]: significantly inhibited; reduction of cell viability (A549 cells [2]): about 20%; smallest dose at which inhibition of biofilm formation was already evident [3]: 2.5 µM; cell viability (HeLa cells): viability remained high; cell viability compared with the control cells (HeLa cells; human, HeLa cells, 6 h, 40 µM): 97%; IL-1 secretion [4]: up-regulated; IL-6 secretion [4]: up-regulated; IL-9 secretion [4]: up-regulated; INF-γ secretion [4]: up-regulated; incubation time at which increased influx of SYTOX Green was evident (S. aureus ATCC 6538): 40 min; dose at which the peptide already effectively permeabilised the bacteria (S. aureus ATCC 6538; SYTOX Green, dose-dependent): 1.25 µM; reduction of cell viability (human fibroblasts (HF)): about 20%; directional cell migration (HUVEC endothelial cells; HUVEC, 100 μM versus 50 μM): did not further increase directional cell migration; chemotactic effect (HUVEC endothelial cells; HUVEC, low concentrations): slight chemotactic effect; directional migration, % of the baseline cell migration (HUVEC endothelial cells; endothelial cells (HUVEC), 50 μM, 4 h): 156%; directional migration, % of the baseline cell migration (HT-1080 cells [5]; 50 μM, 4 h): 158%; directional cell migration (HT-1080 cells [5]; 100 μM versus 50 μM): did not further increase directional cell migration; chemotactic effect (HT-1080 cells [5]; low concentrations): slight chemotactic effect; directional migration, % of the baseline cell migration (A549 cells [6]; 50 μM, 4 h): 169%; directional cell migration (A549 cells [6]; 100 μM versus 50 μM): did not further increase directional cell migration; chemotactic effect (A549 cells [6]; low concentrations): slight chemotactic effect; incubation time at which increased influx of SYTOX Green was seen (P. aeruginosa ATCC 27853): 15 min; dose at which the peptide already effectively permeabilised the bacteria (P. aeruginosa ATCC 27853; SYTOX Green, dose-dependent): 1.25 µM; reduction of cell viability (HUVEC cells): about 20%; biofilm formation [7]: significantly inhibited; biofilm maturation [7]: significantly inhibited; smallest dose at which inhibition of biofilm formation was already evident [8]: 2.5 µM; cell viability (HT-1080 cells [9]): viability remained high
